# Assay results from ChEMBL document CHEMBL1201862, “PubChem BioAssay data set” (2004).
# Several values for one entry are separate records, joined by “and”; a condition that tells them apart may be missing. Identical values can stand only once. Activity calls are given as the source filed them.
# Columns and labels:
# [1] = target: Broad substrate specificity ATP-binding cassette transporter ABCG2 (Homo sapiens, UniProt Q9UNQ0); assay: ABCG2 efflux pump inhibitors, dose response, Ig-MXP3 cells, flow cytometry (AID 1690); format: functional
# Broad substrate specificity ATP-binding cassette transporter ABCG2, sequence (Q9UNQ0 whole entry): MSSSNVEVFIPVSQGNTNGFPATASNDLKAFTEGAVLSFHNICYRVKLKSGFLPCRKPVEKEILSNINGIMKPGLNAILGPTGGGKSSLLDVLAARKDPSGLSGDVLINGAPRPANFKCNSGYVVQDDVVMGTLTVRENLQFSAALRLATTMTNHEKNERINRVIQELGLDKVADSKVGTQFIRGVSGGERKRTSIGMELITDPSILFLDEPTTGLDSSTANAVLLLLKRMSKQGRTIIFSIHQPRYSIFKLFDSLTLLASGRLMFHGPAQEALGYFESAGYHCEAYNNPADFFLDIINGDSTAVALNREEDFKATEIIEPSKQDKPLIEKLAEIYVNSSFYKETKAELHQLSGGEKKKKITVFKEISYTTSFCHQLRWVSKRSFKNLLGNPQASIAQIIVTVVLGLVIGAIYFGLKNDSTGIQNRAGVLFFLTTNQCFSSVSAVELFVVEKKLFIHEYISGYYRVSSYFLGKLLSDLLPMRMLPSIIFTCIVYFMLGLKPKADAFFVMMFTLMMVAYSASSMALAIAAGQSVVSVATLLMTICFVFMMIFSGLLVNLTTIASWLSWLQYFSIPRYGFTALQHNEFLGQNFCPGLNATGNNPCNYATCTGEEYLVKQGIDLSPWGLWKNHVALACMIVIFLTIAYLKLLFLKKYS
# [2] = target: T1, Beta-2 adrenergic receptor (Homo sapiens, UniProt P07550); assay: Dose response for HTS for Beta-2AR agonists via FAP method from Powderset1.; format: functional
# T1 sequence (P07550 whole entry): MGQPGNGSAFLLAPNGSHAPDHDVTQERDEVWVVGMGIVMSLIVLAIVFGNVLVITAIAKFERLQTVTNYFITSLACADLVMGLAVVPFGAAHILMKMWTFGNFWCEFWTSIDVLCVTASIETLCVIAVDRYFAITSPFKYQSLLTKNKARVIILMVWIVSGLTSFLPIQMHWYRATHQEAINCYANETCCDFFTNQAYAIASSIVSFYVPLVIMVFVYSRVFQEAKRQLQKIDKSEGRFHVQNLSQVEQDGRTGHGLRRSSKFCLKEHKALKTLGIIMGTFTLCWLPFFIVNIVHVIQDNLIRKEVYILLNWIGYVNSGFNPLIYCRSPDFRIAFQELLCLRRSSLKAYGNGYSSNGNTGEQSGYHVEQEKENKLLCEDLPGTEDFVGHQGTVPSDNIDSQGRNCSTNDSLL
# [3] = target: T1, Beta-2 adrenergic receptor; assay: beta2AR agonists driving receptor internalization, dose response, cell-based, FAP fluorogen, flow cytometry, cherry pick 1 (AID 588763); format: functional
# [4] = HepG2 cell cytotoxicity, dose response, cytotoxicity control, cherry-picks, set 5 (AID 1053118); format: functional, cell-based
# [5] = target: T2, Sentrin-specific protease 8 (Homo sapiens, UniProt Q96LD8); format: functional
# T2 sequence (Q96LD8 whole entry): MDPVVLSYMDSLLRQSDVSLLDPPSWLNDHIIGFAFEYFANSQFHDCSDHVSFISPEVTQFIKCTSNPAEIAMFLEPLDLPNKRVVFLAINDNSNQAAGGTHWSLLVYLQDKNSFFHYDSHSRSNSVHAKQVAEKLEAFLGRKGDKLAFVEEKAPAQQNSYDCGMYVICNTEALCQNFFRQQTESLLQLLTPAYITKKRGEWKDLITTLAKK
# [6] = target: T2, Sentrin-specific protease 8; format: functional; remark: listed apart in the source
# [7] = target: T1, Beta-2 adrenergic receptor; assay: Dose response for HTS for Beta-2AR agonists via FAP method from Powderset3.; format: functional
# [8] = intracellular Trypanosoma cruzi inhibitors in host cells – cell-based, plate reader, cherry-pick samples, set 3, dose response (AID 651818); format: functional;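 further: compounds incubated with infected cells for about four days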
# [9] = NIH/3T3 fibroblast cytotoxicity, dose response, cytotoxicity control for T. cruzi growth inhibitor project, cell-based, cherry-pick samples, set 2 (AID 651817); format: functional; conditions: NIH3T3
# [10] = target: T3, Polyadenylate-binding protein 1 (Homo sapiens, UniProt P11940); assay: PABP1 MLLE–PAM2 interaction inhibitors, dose response, miRNA deadenylation inhibitor project, biochemical, fluorescence polarization, Cy5-PAM2 peptide, secondary (AID 602260); format: functional; conditions: read-out: IC50_Mean
# T3 sequence (P11940 whole entry): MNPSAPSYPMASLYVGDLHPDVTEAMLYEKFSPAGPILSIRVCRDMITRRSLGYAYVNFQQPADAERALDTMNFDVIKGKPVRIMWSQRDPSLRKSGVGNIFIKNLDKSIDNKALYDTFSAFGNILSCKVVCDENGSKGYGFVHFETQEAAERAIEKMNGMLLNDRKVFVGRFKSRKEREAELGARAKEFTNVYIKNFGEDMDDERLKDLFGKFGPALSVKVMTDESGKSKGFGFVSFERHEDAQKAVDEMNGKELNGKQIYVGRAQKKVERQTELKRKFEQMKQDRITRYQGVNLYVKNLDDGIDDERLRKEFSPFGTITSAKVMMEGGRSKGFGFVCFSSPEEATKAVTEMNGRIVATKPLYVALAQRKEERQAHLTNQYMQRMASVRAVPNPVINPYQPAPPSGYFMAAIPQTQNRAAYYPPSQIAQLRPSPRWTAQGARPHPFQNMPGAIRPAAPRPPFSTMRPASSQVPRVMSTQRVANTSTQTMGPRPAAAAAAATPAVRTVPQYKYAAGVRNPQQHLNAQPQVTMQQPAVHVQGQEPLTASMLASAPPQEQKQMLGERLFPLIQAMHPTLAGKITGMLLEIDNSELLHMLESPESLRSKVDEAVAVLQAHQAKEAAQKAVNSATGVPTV
# [11] = target: Long-chain-fatty-acid--AMP ligase FadD28 (Mycobacterium tuberculosis, UniProt P9WQ59); assay: Fluorescence polarization aasay to screen for inhibitors that compete for the binding of FadD28 to a bisubstrate Measured in Biochemical System Using Plate Reader - 2147-01_Inhibitor_Dose_CherryPick_Activity.; format: functional, Mycobacterium tuberculosis H37Rv
# Long-chain-fatty-acid--AMP ligase FadD28, sequence (P9WQ59 whole entry): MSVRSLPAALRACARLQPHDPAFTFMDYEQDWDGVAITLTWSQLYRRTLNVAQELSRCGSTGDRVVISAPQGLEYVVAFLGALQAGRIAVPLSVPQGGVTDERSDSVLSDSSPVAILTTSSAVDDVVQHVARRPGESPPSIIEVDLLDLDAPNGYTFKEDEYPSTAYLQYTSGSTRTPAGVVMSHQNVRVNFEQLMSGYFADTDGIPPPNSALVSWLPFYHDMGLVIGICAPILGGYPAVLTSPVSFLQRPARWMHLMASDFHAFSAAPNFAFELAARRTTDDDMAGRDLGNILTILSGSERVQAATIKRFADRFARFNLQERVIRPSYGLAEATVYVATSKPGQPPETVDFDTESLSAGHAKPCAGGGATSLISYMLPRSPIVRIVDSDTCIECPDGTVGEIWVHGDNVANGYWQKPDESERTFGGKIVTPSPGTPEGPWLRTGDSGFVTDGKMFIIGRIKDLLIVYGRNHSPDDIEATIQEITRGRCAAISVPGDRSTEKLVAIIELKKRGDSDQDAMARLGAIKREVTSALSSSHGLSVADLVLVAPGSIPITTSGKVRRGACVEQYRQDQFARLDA
# [12] = target: T3, Polyadenylate-binding protein 1; assay: PABP1 MLLE–PAM2 binding inhibitor potency, dose response, biochemical, fluorescence polarization, FITC-PAM2 peptide (AID 602259); format: functional; conditions: read-out: IC50_Mean
# [13] = HEK293T cytotoxicity, dose response, cytotoxicity control for miR-122 modulator project, cell-based, inhibitor set, cherry-pick, set 2 (AID 720697); format: functional
# [14] = cells; format: functional, cell-based; conditions: HEK-CNG
# [15] = target: Galanin receptor type 3 (Homo sapiens, UniProt O60755); assay: Fluorescence-based cell-based primary high throughput dose response assay to identify antagonists of the Galanin Receptor 3 (GalR3).; format: functional
# Galanin receptor type 3, sequence (O60755 whole entry): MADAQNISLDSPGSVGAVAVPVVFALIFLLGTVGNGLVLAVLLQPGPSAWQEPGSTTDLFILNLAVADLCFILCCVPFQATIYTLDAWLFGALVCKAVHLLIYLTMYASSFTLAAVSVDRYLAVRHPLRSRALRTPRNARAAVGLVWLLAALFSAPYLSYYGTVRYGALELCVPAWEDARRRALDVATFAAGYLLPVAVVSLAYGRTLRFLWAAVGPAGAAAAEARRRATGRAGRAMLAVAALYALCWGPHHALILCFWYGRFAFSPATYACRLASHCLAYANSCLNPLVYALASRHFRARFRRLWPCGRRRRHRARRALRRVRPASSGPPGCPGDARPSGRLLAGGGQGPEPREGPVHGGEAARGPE
# [16] = target: T4, Tyrosine-protein phosphatase non-receptor type 22 (Homo sapiens, UniProt Q9Y2R2); assay: PTPN22 phosphatase inhibition, dose response, selectivity assay for STEP inhibitor project, biochemical (AID 624241); format: functional
# T4 sequence (Q9Y2R2 whole entry): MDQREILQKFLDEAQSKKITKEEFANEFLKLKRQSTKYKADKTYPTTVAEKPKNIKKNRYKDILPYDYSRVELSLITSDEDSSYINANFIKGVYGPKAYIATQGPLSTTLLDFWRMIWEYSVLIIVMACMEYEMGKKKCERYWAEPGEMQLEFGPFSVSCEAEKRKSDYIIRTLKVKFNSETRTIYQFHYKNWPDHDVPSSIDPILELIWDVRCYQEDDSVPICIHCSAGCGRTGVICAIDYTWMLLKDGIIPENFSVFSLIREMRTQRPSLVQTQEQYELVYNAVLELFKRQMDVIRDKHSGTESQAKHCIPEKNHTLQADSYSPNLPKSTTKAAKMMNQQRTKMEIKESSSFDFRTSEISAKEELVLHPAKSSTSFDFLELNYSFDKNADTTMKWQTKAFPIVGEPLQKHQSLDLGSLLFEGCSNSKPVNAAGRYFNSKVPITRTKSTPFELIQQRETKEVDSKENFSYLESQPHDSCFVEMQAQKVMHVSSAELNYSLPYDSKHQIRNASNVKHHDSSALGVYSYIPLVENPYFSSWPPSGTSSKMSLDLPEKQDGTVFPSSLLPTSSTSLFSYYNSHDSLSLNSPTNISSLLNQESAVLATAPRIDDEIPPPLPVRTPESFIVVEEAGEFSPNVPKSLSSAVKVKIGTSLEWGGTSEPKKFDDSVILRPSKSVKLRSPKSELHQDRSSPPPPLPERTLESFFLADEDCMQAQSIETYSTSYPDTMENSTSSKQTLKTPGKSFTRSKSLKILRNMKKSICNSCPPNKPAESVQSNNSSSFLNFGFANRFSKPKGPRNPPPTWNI
# [17] = target: Dual specificity protein phosphatase 3 (Homo sapiens, UniProt P51452); assay: VHR phosphatase inhibition, dose response, selectivity assay for STEP inhibitor project, biochemical (AID 602374); format: functional; conditions: read-out: IC50_Mean
# Dual specificity protein phosphatase 3, sequence (P51452 whole entry): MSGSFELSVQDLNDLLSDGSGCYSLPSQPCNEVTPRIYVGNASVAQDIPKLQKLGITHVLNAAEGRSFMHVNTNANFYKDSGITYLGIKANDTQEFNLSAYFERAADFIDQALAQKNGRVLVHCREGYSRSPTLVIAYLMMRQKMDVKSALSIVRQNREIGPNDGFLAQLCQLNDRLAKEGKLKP
# [18] = target: Tyrosine-protein phosphatase non-receptor type 11 (Homo sapiens, UniProt Q06124); assay: SHP2 phosphatase inhibition, dose response, selectivity assay for STEP inhibitor project, biochemical (AID 602367); format: functional; conditions: read-out: IC50_Mean
# Tyrosine-protein phosphatase non-receptor type 11, sequence (Q06124 whole entry): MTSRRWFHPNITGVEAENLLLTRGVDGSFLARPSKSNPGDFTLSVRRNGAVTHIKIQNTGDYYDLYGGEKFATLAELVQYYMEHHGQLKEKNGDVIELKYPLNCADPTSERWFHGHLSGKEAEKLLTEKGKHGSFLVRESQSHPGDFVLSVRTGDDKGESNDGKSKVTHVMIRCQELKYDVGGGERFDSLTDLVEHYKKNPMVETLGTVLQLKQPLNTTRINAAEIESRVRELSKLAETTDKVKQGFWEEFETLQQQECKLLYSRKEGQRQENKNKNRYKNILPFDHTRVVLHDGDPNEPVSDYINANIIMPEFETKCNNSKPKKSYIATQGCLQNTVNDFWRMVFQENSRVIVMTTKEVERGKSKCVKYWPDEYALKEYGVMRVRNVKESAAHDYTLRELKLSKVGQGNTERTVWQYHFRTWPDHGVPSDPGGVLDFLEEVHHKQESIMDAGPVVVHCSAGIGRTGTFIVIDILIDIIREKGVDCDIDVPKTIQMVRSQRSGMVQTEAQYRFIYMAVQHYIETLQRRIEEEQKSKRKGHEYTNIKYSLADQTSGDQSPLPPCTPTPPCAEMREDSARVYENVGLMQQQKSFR
# [19] = target: Tyrosine-protein phosphatase non-receptor type 5 (Homo sapiens, UniProt P54829); assay: STEP phosphatase inhibitors, confirmation, biochemical, fluorescence intensity, uHTS hits (AID 602372); format: functional; conditions: read-out: IC50_Mean
# Tyrosine-protein phosphatase non-receptor type 5, sequence (P54829 whole entry): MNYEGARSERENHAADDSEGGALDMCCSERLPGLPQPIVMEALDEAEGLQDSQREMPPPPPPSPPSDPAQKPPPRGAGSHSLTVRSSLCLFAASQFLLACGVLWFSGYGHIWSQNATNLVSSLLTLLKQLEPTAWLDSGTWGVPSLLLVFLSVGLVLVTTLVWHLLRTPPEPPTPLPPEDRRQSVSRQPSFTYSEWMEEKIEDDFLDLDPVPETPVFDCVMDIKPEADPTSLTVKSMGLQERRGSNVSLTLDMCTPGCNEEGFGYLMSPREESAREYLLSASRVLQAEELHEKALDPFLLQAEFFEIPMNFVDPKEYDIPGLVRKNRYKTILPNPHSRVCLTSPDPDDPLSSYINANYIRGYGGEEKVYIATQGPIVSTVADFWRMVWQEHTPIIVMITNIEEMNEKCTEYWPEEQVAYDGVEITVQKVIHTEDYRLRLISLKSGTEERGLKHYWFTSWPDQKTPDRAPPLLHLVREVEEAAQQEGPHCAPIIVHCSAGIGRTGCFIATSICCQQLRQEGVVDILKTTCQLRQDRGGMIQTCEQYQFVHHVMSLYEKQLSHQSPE
# [20] = CFTR ΔF508 corrector activity in bronchial cells, dose response, human bronchial epithelial cells, plate reader, cherry-pick, two tests (AID 743267); format: functional, cell-based
structure (smiles),measurement,setting,value
O=[N+]([O-])c1ccc(Nc2nc(Cl)nc(NCCO)n2)cc1,EC50,[1],4.63 µM (active)
Cc1ccc(S(=O)(=O)N(C)CC(=O)N2CCN(c3ccccn3)CC2)cc1,EC50,[2],0.002 µM (active)
same,EC50,[3],167 nM (active) and 60.7 nM (active)
Cc1ccc(N(CC(=O)NCc2ccco2)S(=O)(=O)c2ccccc2)cc1,AC50,[4],> 52 µM (inactive)
Nc1cc(N)cc(C(=O)c2ccccc2)c1,IC50,[5],13.8 µM (active)
same,IC50,[6],10.4 µM (active)
CC(Sc1nc(-c2ccccc2)cc(C(F)(F)F)n1)C(=O)N1CCOCC1 (stereo unspecified),EC50,[7],0.0143 µM (active)
same,EC50,[3],43.5 nM (active)
C[C@H](CO)N1C[C@H](C)[C@@H](CN(C)Cc2ccc(Cl)c(Cl)c2)Oc2c(NC(=O)Nc3ccc(C(F)(F)F)cc3)cccc2C1=O,AC50,[8],3.08 µM (active)
same,AC50,[9],10.2 µM (active)
COc1ccc(NC(=O)CSc2ccc([N+](=O)[O-])cc2)cc1S(=O)(=O)N1CCOCC1,IC50,[10],> 66 µM (inactive)
same,AC50,[11],24.7 µM (active)
same,IC50,[12],> 66 µM (inactive)
Cc1nc(O)c(C#N)cc1-c1ccccc1,AC50,[13],2.43 µM (active)
same,EC50,[14],> 29.9 µM (inactive)
same,IC50,[15],5.68 µM (active)
Cc1c(C)c2ccc(OCC(=O)Nc3ccc(S(N)(=O)=O)cc3)c(C)c2oc1=O,IC50,[16],44.9 µM (inactive)
same,IC50,[17],10.8 µM (active)
same,IC50,[18],6.82 µM (active)
same,IC50,[19],22.9 µM (inactive)
COc1cc(/C=C(\CC(=O)O)c2nc3ccccc3s2)ccc1OCC(=O)Nc1ccccc1F,AC50,[20],58.5 µM (active)
